These results are taken from patent publication US4617292A, “Pharmaceutical compositions and method for inhibiting histamine release tocopheryl glycoside” (Sunstar Kabushiki Kaisha, priority 1984, dated 1986).

Data set [1] concerns mast cells. The data set is described as follows: Inhibition of histamine release from mast cells due to an antigen-antibody reaction (in vitro; ovalbumin-sensitized). The data set is classed as cell-based, Wister male rats. The note with it: Mast cell; rat peritoneal mast cells; antigenic ovalbumin 10^-4 g/ml; 5 min pre-incubation, 10 min incubation at 37° C.; corrected for spontaneous release; read-out: concentration showing 50% inhibition of histamine release.

The nature of data set [2]: Acute toxicity (LD50). The note with it: in vivo.
Setting [3] is: ip, read-out: LD50 values (i.p.).
[4] abbreviates: po, read-out: LD50 values (p.o.).

The structures appear in SMILES notation. Read-outs that look alike come from different tables or passages of the source.

As for `Cc1c(C)c2c(c(C)c1O[C@@H]1O[C@H](CO)[C@@H](O)[C@H](O)[C@@H]1O)CCC(C)(CCCC(C)CCCC(C)CCCC(C)C)O2` (mixture of isomers) [dl-α-tocopherylmannoside, dl-α-Tocopherylmannoside], the IC50 in data set [1] is roughly 15 µg/mL. Besides, the LD50 is greater than 500 mg/kg in data set [2] (setting [3]) and greater than 5000 mg/kg in data set [2] (setting [4]).
The like results for `Cc1c(C)c2c(c(C)c1OC1O[C@H](CO)[C@@H](O)[C@H](O)[C@H]1O)CCC(C)(CCCC(C)CCCC(C)CCCC(C)C)O2` (mixture of isomers) [dl-α-tocopherylglucoside, dl-α-Tocopherylglucoside] were, in that order, roughly 50 µg/mL, greater than 500 mg/kg and greater than 5000 mg/kg.

Broadly, the LD50 is the dose expected to kill half of the subjects tested.
